Assay results from US9187464B2, “TRPV4 antagonists” (GlaxoSmithKline Intellectual Property (No. 2) Limited, priority 2011, dated 2015).

Target: T1, human TRPV4 (Homo sapiens, UniProt Q9HBA0)
T1 construct: expressed in transfected cells; host or cells: HEK-293-MSR-II cells transduced with 1% BacMam virus
Test: Ligand-gated assay (Fluo4 calcium, FLIPR; inhibition of agonist-induced activation)
Format: cell-based
Settings: HEK-293-MSR-II cells transduced with BacMam human TRPV4; agonist at EC80
Summary of the method: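 HEK-293-MSR-II cells BacMam-transduced with human TRPV4, loaded with 2 uM Fluo-4. Compound preincubated 10 min at room temperature in HBSS pH 7.4 plus 0.01% Chaps, then agonist added at its EC80. Inhibition of agonist-evoked calcium rise read on FLIPR; IC50 reported.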

T1 sequence (Q9HBA0 whole entry): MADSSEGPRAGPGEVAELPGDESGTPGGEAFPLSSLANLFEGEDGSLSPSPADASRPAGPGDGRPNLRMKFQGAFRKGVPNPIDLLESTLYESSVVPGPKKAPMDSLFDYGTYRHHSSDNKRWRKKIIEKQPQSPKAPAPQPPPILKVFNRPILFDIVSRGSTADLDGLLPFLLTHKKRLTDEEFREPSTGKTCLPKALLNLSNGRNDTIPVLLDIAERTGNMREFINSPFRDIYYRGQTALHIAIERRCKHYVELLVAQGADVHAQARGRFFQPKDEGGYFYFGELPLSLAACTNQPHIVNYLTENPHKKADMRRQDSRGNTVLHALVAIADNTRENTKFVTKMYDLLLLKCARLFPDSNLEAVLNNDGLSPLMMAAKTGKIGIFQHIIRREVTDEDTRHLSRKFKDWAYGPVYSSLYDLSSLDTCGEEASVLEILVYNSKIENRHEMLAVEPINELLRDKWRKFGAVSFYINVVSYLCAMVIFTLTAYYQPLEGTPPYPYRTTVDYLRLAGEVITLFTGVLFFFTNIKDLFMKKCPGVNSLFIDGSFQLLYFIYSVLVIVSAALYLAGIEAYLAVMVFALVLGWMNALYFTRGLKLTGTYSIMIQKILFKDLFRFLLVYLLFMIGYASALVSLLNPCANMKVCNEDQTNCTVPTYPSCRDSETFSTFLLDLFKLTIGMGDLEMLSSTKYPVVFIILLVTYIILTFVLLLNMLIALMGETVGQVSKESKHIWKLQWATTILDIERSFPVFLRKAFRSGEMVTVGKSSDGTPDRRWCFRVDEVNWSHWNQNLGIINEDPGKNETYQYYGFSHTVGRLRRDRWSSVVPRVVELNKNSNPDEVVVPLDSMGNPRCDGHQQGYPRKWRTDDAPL

SMILES	IC50 [µM]
C[C@]1(Cn2cnc3ccc(C#N)cc32)CCC[C@@]2(CN(c3ccc(C(F)(F)F)cn3)C(=O)O2)C1 [Example 11, 1-({(5S,7S)-7-Methyl-2-oxo-3-[5-(trifluoromethyl)-2-pyridinyl]-1-oxa-3-azaspiro[4.5]dec-7-yl}methyl)-1H-benzimidazole-6-carbonitrile]	0.01 to 0.05
Cn1nc(CN2C[C@@]3(CCC[C@H](Cn4cnc5ccc(C#N)cc54)C3)OC2=O)cc1-c1ccccc1 [Example 69, 1-({(5S,7S)-3-[(1-methyl-5-phenyl-1H-pyrazol-3-yl)methyl]-2-oxo-1-oxa-3-azaspiro[4.5]dec-7-yl}methyl)-1H-benzimidazole-6-carbonitrile]	0.05 to 0.5
C[C@]1(Cn2cnc3ccc(C#N)cc32)CCC[C@@]2(CN(c3cc(C4(C#N)CC4)no3)C(=O)O2)C1 [Example 38, 1-({(5S,7S)-3-[3-(1-cyanocyclopropyl)-5-isoxazolyl]-7-methyl-2-oxo-1-oxa-3-azaspiro[4.5]dec-7-yl}methyl)-1H-benzimidazole-6-carbonitrile]	0.01 to 0.05
C[C@]1(Cn2cnc3ccc(C#N)cc32)CCC[C@@]2(CN(c3cnc(C(F)(F)F)nc3)C(=O)O2)C1 [Example 25, 1-(((5S,7S)-7-Methyl-2-oxo-3-(2-(trifluoromethyl)pyrimidin-5-yl)-1-oxa-3-azaspiro[4.5]decan-7-yl)methyl)-1H-benzo[d]imidazole-6-carbonitrile]	0.0001 to 0.01
N#Cc1ccc2ncn(C[C@H]3CCC[C@]4(C3)CN(Cc3cn(-c5cccc(C(F)(F)F)c5)nn3)C(=O)O4)c2c1 [Example 93, 1-{[(5S,7S)-2-oxo-3-({1-[3-(trifluoromethyl)phenyl]-1H-1,2,3-triazol-4-yl}methyl)-1-oxa-3-azaspiro[4.5]dec-7-yl]methyl}-1H-benzimidazole-6-carbonitrile]	0.0001 to 0.01

Continued, values first:

IC50 [µM]	SMILES
0.05 to 0.5	CCOc1ccc(N2C[C@@]3(CCC[C@](C)(Cn4cnc5ccc(C#N)cc54)C3)OC2=O)nn1 [Example 136, 1-({(5S,7S)-3-[6-(ethyloxy)-3-pyridazinyl]-7-methyl-2-oxo-1-oxa-3-azaspiro[4.5]dec-7-yl}methyl)-1H-benzimidazole-6-carbonitrile]
0.01 to 0.05	N#Cc1ccc2ncn(C[C@H]3CCC[C@]4(C3)CN(Cc3cn(-c5cncc(Cl)c5)nn3)C(=O)O4)c2c1 [Example 106, 1-[((5S,7S)-3-{[1-(5-chloro-3-pyridinyl)-1H-1,2,3-triazol-4-yl]methyl}-2-oxo-1-oxa-3-azaspiro[4.5]dec-7-yl)methyl]-1H-benzimidazole-6-carbonitrile]
0.05 to 0.5	CN(C)c1cnc(N2C[C@@]3(CCC[C@](C)(Cn4cnc5ccc(C#N)cc54)C3)OC2=O)cn1 [Example 150, 1-(((5S,7S)-3-(5-(dimethylamino)pyrazin-2-yl)-7-methyl-2-oxo-1-oxa-3-azaspiro[4.5]decan-7-yl)methyl)-1H-benzo[d]imidazole-6-carbonitrile]
0.01 to 0.05	COc1cc(C)c(N2C[C@@]3(CCC[C@](CO)(Cn4cnc5ccc(C#N)cc54)C3)OC2=O)cn1 [Example 143, 1-((7-(hydroxymethyl)-3-(6-methoxy-4-methylpyridin-3-yl)-2-oxo-1-oxa-3-azaspiro[4.5]decan-7-yl)methyl)-1H-benzo[d]imidazole-6-carbonitrile]
0.0001 to 0.01	COc1ncc(N2C[C@@]3(CCC[C@](C)(Cn4cnc5ccc(C#N)cc54)C3)OC2=O)cc1C [Example 132, 1-(((5S,7S)-3-(6-methoxy-5-methylpyridin-3-yl)-7-methyl-2-oxo-1-oxa-3-azaspiro[4.5]decan-7-yl)methyl)-1H-benzo[d]imidazole-6-carbonitrile]
0.0001 to 0.01	CC(C)(O)c1ccc(N2C[C@@]3(CCC[C@](C)(Cn4cnc5ccc(C#N)cc54)C3)OC2=O)nc1 [Example 167, 1-(((5S,7S)-3-(5-(2-hydroxypropan-2-yl)pyridin-2-yl)-7-methyl-2-oxo-1-oxa-3-azaspiro[4.5]decan-7-yl)methyl)-1H-benzo[d]imidazole-6-carbonitrile]
